Measured values taken from patent US20040138199A1, “Benzoxazines and derivatives thereof as therapeutic agents” (priority 2002, published 2004).
pIC50: −log10 of the molar value.

Target: T1, p101/p110γ protein (PI3Kγ) (Homo sapiens, UniProt P48736)
T1 construct: HA; made in house; host or cells: Spodoptera frugiperda (Sf9) cells, baculovirus coinfection
Assay: PI3Kγ In Vitro Kinase Assay
Type: biochemical
Conditions: purified recombinant p101/p110γ with G protein β1/γ2 subunits; 20 μM ATP, 25 μM PIP2; 20 minutes at room temperature; radioactive PIP3 readout
Experimental: Spodtera frugiperda cells, grown in ESF921 media, were coinfected with baculovirus expressing a glu-tagged […] and baculovirus expressing an HA-tagged p110γ, at a 3:1 ratio of p110 baculovirus to p110γ baculovirus. Sf9 cells were grown to 1×10^7 total cells/mL in 10L bioreactors and harvested 48-72 hours post infection. Samples of infected cells were then tested for expression of p101/p110γ PI3 kinase by immunoprecipitation and Western Blot analysis methods (see below).
To purify PI3Kγ, 4 volumes of room temperature hypotonic lysis buffer (1 mM MgCl2, 1 mM DTT, 5 mM EGTA, 1 mM Pefabloc, 0.5 μM aprotinin, […], 2 μM pepstatin, 5 μM E64, pH 8) per gram of cell paste, was poured onto frozen cell pellets with stirring, then lysed in a nitrogen “bomb” at 400 psi (599HC T316, Parr Instrument Co, Moline, Ill.). NaCl was added to 150 mM, and sodium cholate was added to 1% and mixed for another 45 minutes. The lysates were clarified by centrifugation for 25 minutes at 14,000 rpm. The lysates were then loaded over anti-glu-linked Protein-G Sepaharose beads (Covance Research Products, Richmond, Calif.) using 20 mL resin/50 g cell paste. The column was washed with 15 volumes of wash buffer (1 mM DTT, 0.2 mM EGTA, 1 mM Pefabloc, 0.5 μM aprotinin, 5 μM leupeptin, 2 μM pepstatin, 5 μM E64, 150 mM NaCl, 1% sodium cholate, pH 8). PI3Kγ was eluted with 6 column volumes of wash buffer that contain 100 μg/mL of a peptide that competes for binding of the glu tag. The column fractions with the eluted protein (determined by taking OD280 readings) were collected and dialyzed in 0.2 mM EGTA, 1 mM DTT, 1 mM Pefabloc, 5 μM leupeptin, 0.5% sodium cholate, 150 mM NaCl, and 50% glycerol, pH 8. The fractions were stored at −80° C. until further use.
Spodtera frugiperda cells were coinfected with baculovirus expressing a glu-tagged G protein β1 and baculovirus expressing a […] at a 1:1 ratio of glu-tagged G protein β1 baculovirus to G protein β2 baculovirus. Sf9 cells are grown in 10 L bioreactors and harvested 48-72 hours post infection. Samples of infected cells were tested for G protein β1/β2 expression by Western Blot analysis, as described below. Cell lysates were homogenized and loaded onto a column of glu-tagged beads as in Biological Example 1 and competed off the column with a glu peptide as described in Biological Example 1.
The inhibitory properties of the compounds in Table 1 were assayed in an in vitro PI3K assay. In a 96-well polypropylene plate, each well was spotted with 2 μL of 50 times the desired final concentration of compound in DMSO. Purified recombinant p101/p110γ protein (0.03 μg; ˜2.7 nM) and G protein β1/γ2 subunits (0.09 μg; −57.7 nM) for each reaction was combined in the assay buffer (30 mM HEPES, 100 mM NaCl, 1 mM EGTA, and 1 mM DTT). ATP and [γ-^32P-ATP] (0.09 μCi) were added to this mixture so that the final ATP concentration in the reaction was 20 μM. Lipid micelles were formed by sonicating phosphatidylinositol-4,5-diphosphate (PIP2), phosphatidylethanolamine (PE), and Na-cholate in the assay buffer for 10 minutes, adding MgCL2 and incubating on ice for 20 minutes, for final concentrations of 25 μM PIP2, 300 μM PE, 0.02% Na-cholate, and 10 mM MgCl2 in the reaction. The reactions were started by adding equal volumes lipid and enzyme mixture in a total volume of 50 μL, allowed to run for 20 minutes at room temperature, and stopped with 100 μL 75 mM H3PO4. The lipid product was transferred to a glass fiber filter plate and washed with 75 mM H3PO4 several times. The presence of radioactive lipid product (PIP3) was measured by adding Wallac Optiphase mix to each well and counting in a Wallac 1450 Trilux plate reader (PerkinElmer Life Sciences Inc., Boston, Mass. 02118). The IC50 for each compound tested is reported in μM in Table 1: […]

T1 sequence (P48736 whole entry, species assumed): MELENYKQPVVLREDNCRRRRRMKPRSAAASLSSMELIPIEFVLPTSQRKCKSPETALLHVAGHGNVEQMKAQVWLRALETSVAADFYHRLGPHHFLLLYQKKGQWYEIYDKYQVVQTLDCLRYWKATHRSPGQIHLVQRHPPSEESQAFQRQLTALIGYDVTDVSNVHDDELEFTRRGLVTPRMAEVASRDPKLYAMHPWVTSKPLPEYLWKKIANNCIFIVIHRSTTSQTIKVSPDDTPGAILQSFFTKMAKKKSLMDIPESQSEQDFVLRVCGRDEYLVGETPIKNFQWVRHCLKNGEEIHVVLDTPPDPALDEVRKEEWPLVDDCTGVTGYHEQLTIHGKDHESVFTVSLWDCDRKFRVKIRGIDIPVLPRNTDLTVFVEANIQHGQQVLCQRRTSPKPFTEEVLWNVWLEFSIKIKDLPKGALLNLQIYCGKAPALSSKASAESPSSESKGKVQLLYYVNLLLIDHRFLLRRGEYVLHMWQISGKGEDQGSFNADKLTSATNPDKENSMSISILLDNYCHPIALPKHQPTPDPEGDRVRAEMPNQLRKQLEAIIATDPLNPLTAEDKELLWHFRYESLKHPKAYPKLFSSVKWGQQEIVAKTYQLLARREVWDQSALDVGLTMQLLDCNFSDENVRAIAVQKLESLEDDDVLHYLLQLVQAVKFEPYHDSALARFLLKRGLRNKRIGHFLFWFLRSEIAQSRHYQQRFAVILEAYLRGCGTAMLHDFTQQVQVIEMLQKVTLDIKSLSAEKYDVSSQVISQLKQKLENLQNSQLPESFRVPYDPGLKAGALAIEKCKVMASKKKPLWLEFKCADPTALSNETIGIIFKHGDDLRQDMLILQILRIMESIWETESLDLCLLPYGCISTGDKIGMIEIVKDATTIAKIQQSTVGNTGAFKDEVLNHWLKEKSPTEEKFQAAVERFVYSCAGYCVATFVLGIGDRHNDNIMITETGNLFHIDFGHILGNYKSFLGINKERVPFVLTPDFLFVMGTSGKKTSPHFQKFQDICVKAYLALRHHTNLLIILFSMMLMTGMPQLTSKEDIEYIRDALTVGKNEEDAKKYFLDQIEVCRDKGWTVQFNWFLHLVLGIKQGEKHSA
T1 sequence (Q8WYR1 whole entry partner, species assumed): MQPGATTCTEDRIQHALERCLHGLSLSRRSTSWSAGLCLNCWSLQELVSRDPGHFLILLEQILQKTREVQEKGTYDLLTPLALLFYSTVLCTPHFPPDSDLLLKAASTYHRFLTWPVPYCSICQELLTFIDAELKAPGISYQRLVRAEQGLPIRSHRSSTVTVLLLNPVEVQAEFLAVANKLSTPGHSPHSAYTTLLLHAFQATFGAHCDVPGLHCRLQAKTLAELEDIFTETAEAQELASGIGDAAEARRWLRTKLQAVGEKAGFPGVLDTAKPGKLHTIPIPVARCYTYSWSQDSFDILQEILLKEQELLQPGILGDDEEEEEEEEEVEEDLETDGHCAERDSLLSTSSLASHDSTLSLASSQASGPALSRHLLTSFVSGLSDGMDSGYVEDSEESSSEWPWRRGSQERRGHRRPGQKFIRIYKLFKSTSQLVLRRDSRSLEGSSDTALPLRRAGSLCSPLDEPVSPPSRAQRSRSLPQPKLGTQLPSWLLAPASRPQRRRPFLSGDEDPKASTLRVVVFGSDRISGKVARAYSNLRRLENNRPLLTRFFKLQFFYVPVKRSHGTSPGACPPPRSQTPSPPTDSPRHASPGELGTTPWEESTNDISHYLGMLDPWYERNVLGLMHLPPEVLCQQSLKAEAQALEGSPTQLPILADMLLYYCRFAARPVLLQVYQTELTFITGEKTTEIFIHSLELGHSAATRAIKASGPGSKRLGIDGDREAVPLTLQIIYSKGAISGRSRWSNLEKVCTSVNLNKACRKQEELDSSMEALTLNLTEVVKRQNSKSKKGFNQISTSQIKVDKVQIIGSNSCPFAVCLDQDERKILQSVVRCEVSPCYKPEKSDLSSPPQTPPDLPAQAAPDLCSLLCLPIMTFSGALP

Structure (SMILES)	pIC50
CC(C)C(=O)N1CCOc2ccc(C=C3SC(=S)NC3=O)cc21 [Example 31, 5-(4-Isobutyryl-3,4-dihydro-2H-1,4-benzoxazin-6-ylmethylene)-2-thioxo-thiazolidin-4-one]	8.05
O=C1NC(=S)SC1=Cc1ccc2c(c1)N(C(=O)C1CC1)CCO2 [Example 32, 5-(4-Cyclopropanecarbonyl-3,4-dihydro-2H-1,4-benzoxazin-6-ylmethylene)-2-thioxo-thiazolidin-4-one]	5.40
O=C1NC(=S)SC1=Cc1ccc2c(c1)N(C(=O)C1CCCC1)CCO2 [Example 33, 5-(4-Cyclopentanecarbonyl-3,4-dihydro-2H-1,4-benzoxazin-6-ylmethylene)-2-thioxo-thiazolidin-4-one]	7.85
CCCCCCC(=O)N1CCOc2ccc(C=C3SC(=S)NC3=O)cc21 [Example 34, 5-(4-Heptanoyl-3,4-dihydro-2H-1,4-benzoxazin-6-ylmethylene)-2-thioxo-thiazolidin-4-one]	8.40
O=C1NC(=S)SC1=Cc1ccc2c(c1)N(C(=O)Cc1cccs1)CCO2 [Example 35, 5-[4-(2-Thiophen-2-yl-acetyl)-3,4-dihydro-2H-1,4-benzoxazin-6-ylmethylene]-2-thioxo-thiazolidin-4-one]	7.44
O=C1NC(=S)SC1=Cc1ccc2c(c1)N(C(=O)CCC1CCCC1)CCO2 [Example 36, 5-[4-(3-Cyclopentyl-propionyl)-3,4-dihydro-2H-1,4-benzoxazin-6-ylmethylene]-2-thioxo-thiazolidin-4-one]	8.30
O=C1NC(=S)SC1=Cc1ccc2c(c1)N(C(=O)C=Cc1ccccc1)CCO2 [Example 37, 5-[4-(3-Phenyl-acryloyl)-3,4-dihydro-2H-1,4-benzoxazin-6-ylmethylene]-2-thioxo-thiazolidin-4-one]	8.15
O=C1NC(=S)SC1=Cc1ccc2c(c1)N(C(=O)COc1ccccc1)CCO2 [Example 38, 5-[4-(2-Phenoxy-acetyl)-3,4-dihydro-2H-1,4-benzoxazin-6-ylmethylene]-2-thioxo-thiazolidin-4-one]	7.60
O=C1NC(=S)SC1=Cc1ccc2c(c1)N(C(=O)COCc1ccccc1)CCO2 [Example 39, 5-[4-(2-Benzyloxy-acetyl)-3,4-dihydro-2H-1,4-benzoxazin-6-ylmethylene]-2-thioxo-thiazolidin-4-one]	7.85
O=C1NC(=S)SC1=Cc1ccc2c(c1)N(C(=O)CSc1ccccc1)CCO2 [Example 40, 5-[4-(2-Phenylsulfanyl-acetyl)-3,4-dihydro-2H-1,4-benzoxazin-6-ylmethylene]-2-thioxo-thiazolidin-4-one]	7.92
O=C1NC(=S)SC1=Cc1ccc2c(c1)N(C(=O)c1cccs1)CCO2 [Example 42, 5-[4-(Thiophene-2-carbonyl)-3,4-dihydro-2H-1,4-benzoxazin-6-ylmethylene]-2-thioxo-thiazolidin-4-one]	6.82
O=C1NC(=S)SC1=Cc1ccc2c(c1)N(C(=O)c1cnc3ccccc3n1)CCO2 [Example 43, 5-[4-(Quinoxaline-2-carbonyl)-3,4-dihydro-2H-1,4-benzoxazin-6-ylmethylene]-2-thioxo-thiazolidin-4-one]	6.25
COC(=O)CCCCCCC(=O)N1CCOc2ccc(C=C3SC(=S)NC3=O)cc21 [Example 44, 8-Oxo-8-[6-(4-oxo-2-thioxo-thiazolidin-5-ylidenemethyl)-2,3-dihydro-1,4-benzoxazin-4-yl]-octanoic acid methyl ester]	7.74

The next lines start with the values.

pIC50	Structure (SMILES)
6.12	O=C1NC(=S)SC1=Cc1ccc2c(c1)N(C(=O)c1cc(C(F)(F)F)cc(C(F)(F)F)c1)CCO2 [Example 45, 5-[4-(3,5-Bis-trifluoromethyl-benzoyl)-3,4-dihydro-2H-1,4-benzoxazin-6-ylmethylene]-2-thioxo-thiazolidin-4-one]
6.43	O=C1NC(=S)SC1=Cc1ccc2c(c1)N(C(=O)c1cc(F)cc(F)c1)CCO2 [Example 46, 5-[4-(3,5-Difluoro-benzoyl)-3,4-dihydro-2H-1,4-benzoxazin-6-ylmethylene]-2-thioxo-thiazolidin-4-one]
7.36	O=C1NC(=S)SC1=Cc1ccc2c(c1)N(C(=O)COc1ccc(Cl)cc1)CCO2 [Example 47, 5-{4-[2-(4-Chloro-phenoxy)-acetyl]-3,4-dihydro-2H-1,4-benzoxazin-6-ylmethylene}-2-thioxo-thiazolidin-4-one]
6.15	O=C1NC(=S)SC1=Cc1ccc2c(c1)N(C(=O)c1ccc3c(c1)OC(F)(F)O3)CCO2 [Example 48, 5-[4-(2,2-Difluoro-1,3-benzodioxole-5-carbonyl)-3,4-dihydro-2H-1,4-benzoxazin-6-ylmethylene]-2-thioxo-thiazolidin-4-one]
6.61	O=C1NC(=S)SC1=Cc1ccc2c(c1)N(C(=O)c1ccno1)CCO2 [Example 49, 5-[4-(Isoxazole-5-carbonyl)-3,4-dihydro-2H-1,4-benzoxazin-6-ylmethylene]-2-thioxo-thiazolidin-4-one]
8.15	COC(=O)c1ccc(OC(=O)N2CCOc3ccc(C=C4SC(=S)NC4=O)cc32)cc1 [Example 50, 6-(4-Oxo-2-thioxo-thiazolidin-5-ylidenemethyl)-2,3-dihydro-1,4-benzoxazine-4-carboxylic acid 4-methoxycarbonyl-phenyl ester]
6.07	O=C1NC(=S)SC1=Cc1ccc2c(c1)N(C(=O)c1cc(Cl)sc1Cl)CCO2 [Example 51, 5-[4-(2,5-Dichloro-thiophene-3-carbonyl)-3,4-dihydro-2H-1,4-benzoxazin-6-ylmethylene]-2-thioxo-thiazolidin-4-one]
6.94	Cc1cc(C(=O)N2CCOc3ccc(C=C4SC(=S)NC4=O)cc32)no1 [Example 52, 5-[4-(5-Methyl-isoxazole-3-carbonyl)-3,4-dihydro-2H-1,4-benzoxazin-6-ylmethylene]-2-thioxo-thiazolidin-4-one]
6.58	O=C1NC(=S)SC1=Cc1ccc2c(c1)N(C(=O)c1sccc1Cl)CCO2 [Example 53, 5-[4-(3-Chloro-thiophene-2-carbonyl)-3,4-dihydro-2H-1,4-benzoxazin-6-ylmethylene]-2-thioxo-thiazolidin-4-one]
6.35	O=C1NC(=S)SC1=Cc1ccc2c(c1)N(C(=O)c1ccccn1)CCO2 [Example 54, 5-[4-(Pyridine-2-carbonyl)-3,4-dihydro-2H-1,4-benzoxazin-6-ylmethylene]-2-thioxo-thiazolidin-4-one]
8.30	O=C1NC(=S)SC1=Cc1ccc2c(c1)N(C(=O)Nc1cccc(C(F)(F)F)c1)CCO2 [Example 55, 6-(4-Oxo-2-thioxo-thiazolidin-5-ylidenemethyl)-2,3-dihydro-1,4-benzoxazine-4-carboxylic acid (3-trifluoromethyl-phenyl)-amide]
6.65	O=C1NC(=S)SC1=Cc1ccc2c(c1)N(C(=O)Nc1ccccc1OC(F)(F)F)CCO2 [Example 56, 6-(4-Oxo-2-thioxo-thiazolidin-5-ylidenemethyl)-2,3-dihydro-1,4-benzoxazine-4-carboxylic acid (2-trifluoromethoxy-phenyl)-amide]
7.02	Cc1ccc(NC(=O)N2CCOc3ccc(C=C4SC(=S)NC4=O)cc32)cc1 [Example 57, 6-(4-Oxo-2-thioxo-thiazolidin-5-ylidenemethyl)-2,3-dihydro-1,4-benzoxazine-4-carboxylic acid p-tolylamide]
